Source: US20200255436A1, “CORTICOTROPIN RELEASING FACTOR RECEPTOR ANTAGONISTS” (Spruce Biosciences, Inc., priority 2019, published 2020)

Assays:
[1] = Phase 1 safety and tolerability (Study 1 and Study 2); format: in vivo, human; details: healthy subjects
Source text: Study 1 was the first-in-human study that investigated the safety, tolerability, and PK of single-escalating doses of Compound 1, given orally, to healthy adult subjects. […] The data from this study were used for the selection of doses for Study 2.
The 2-part multiple-dose study, Study 2, determined the safety and tolerability of repeated daily doses of Compound 1 and investigated the effects on biomarkers of relevance for the treatment of alcohol dependence.
The safety of Compound 1 was evaluated in 2 Phase 1 studies in healthy adult volunteers (Study 1 and Study 2). In both studies, adverse events (AEs), clinical laboratory tests, vital signs (supine blood pressure and pulse rate), and electrocardiograms (ECGs) were evaluated. Overall, in Study 1, Compound 1 was well-tolerated.

[2] = Phase 2 study in adults with classic CAH: safety; format: in vivo, human; details: patients with CAH, 5-fold range of doses
Source text: (§1) Cohort A of the Phase 2 Study includes a 6-week, multiple-dose, dose escalation study of Compound 1 for the treatment of adults with classic CAH. After screening, eligible patients will be enrolled into a 6-week treatment period followed by a 4-week washout/safety follow-up period.
This cohort will be conducted in approximately 9 patients, who will receive Compound 1 daily for up to 6 weeks. Compound 1 will be administered as an oral daily dose. Patients will undergo titration of Compound 1 through three escalating dosage strengths at 2-week intervals. Patients will have overnight PK/PD assessments performed at baseline, which include an pre-dose overnight assessment and a post-dose overnight assessment for PK/PD following administration of the first dose. At the end of each 2-week dosing period, patients will return for single overnight visits for steady-state PK/PD assessments. A follow-up outpatient visit will occur 30 days after their last dose. Upon completion of the initial cohort (Cohort A), the study will proceed to a multiple ascending dose (MAD) design with up to 3 sequential cohorts (Cohorts B, C, and D) to further evaluate the safety, PK, and PD of various SPROO1 dosing regimens and to identify an optimal dose regimen. […]
• 1. […] To assess the efficacy of Compound 1 in subjects with classic CAH as measured by percent and absolute change in 17-OHP compared to baseline.

CRF1 receptor = target: T1, CRF1 receptor (Homo sapiens, UniProt P34998); assay: Phase 2 study in adults with classic CAH: ACTH, 17-OHP, androstenedione response; format: in vivo; details: patients with classic CAH
T1 construct: from tissue; host or cells: Human patients in vivo (anterior pituitary corticotrophs)
T1 sequence (P34998 24-415): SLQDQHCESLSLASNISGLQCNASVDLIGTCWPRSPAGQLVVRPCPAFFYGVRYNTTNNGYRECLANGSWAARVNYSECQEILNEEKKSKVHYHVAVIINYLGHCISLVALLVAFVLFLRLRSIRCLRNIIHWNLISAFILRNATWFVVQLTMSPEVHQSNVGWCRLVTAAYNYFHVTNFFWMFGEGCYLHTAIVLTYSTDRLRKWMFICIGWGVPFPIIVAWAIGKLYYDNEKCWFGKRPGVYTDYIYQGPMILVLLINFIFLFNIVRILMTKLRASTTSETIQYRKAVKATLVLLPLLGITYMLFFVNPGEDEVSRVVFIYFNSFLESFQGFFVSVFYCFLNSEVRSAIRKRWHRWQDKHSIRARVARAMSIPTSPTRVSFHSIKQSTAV
Source text: as §1
This cohort will be conducted in approximately 9 patients, who will receive Compound 1 daily for up to 6 weeks. Compound 1 will be administered as an oral daily dose. Patients will undergo titration of Compound 1 through three escalating dosage strengths at 2-week intervals. Patients will have overnight PK/PD assessments performed at baseline, which include an pre-dose overnight assessment and a post-dose overnight assessment for PK/PD following administration of the first dose. At the end of each 2-week dosing period, patients will return for single overnight visits for steady-state PK/PD assessments. A follow-up outpatient visit will occur 30 days after their last dose. Upon completion of the initial cohort (Cohort A), the study will proceed to a multiple ascending dose (MAD) design with up to 3 sequential cohorts (Cohorts B, C, and D) to further evaluate the safety, PK, and PD of various SPROO1 dosing regimens and to identify an optimal dose regimen. Each cohort will undergo a 2-week run-in period, a 2-week treatment period, and a 30-day washout and safety follow-up period. During the run-in period, which will occur during screening, subjects will document in a paper diary each dose of glucocorticoid medication taken, the time of each meal, and the time they went to bed and woke up each day, to ensure compliance with background glucocorticoid regimens and the stability of their daily routine.
• 1. To evaluate the safety of Compound 1 in subjects with CAH. • 2. To assess the efficacy of Compound 1 in subjects with classic CAH as measured by percent and absolute change in 17-OHP compared to baseline.
• 3. To explore the dose(s) of Compound 1 that cause pharmacodynamics changes in plasma concentrations of ACTH, androstenedione, and testosterone, as measured by the absolute and percent change from baseline by dose. • 4. To determine pharmacokinetics of Compound 1 in subjects with CAH. • 5. To explore potential relationships between pharmacodynamics and pharmacokinetics.

CCC(CC)c1cc(C)nc2c(-c3sc(N4CCOCC4)nc3Cl)c(C)nn12 [Compound 1, 4-(4-chloro-5-(2,5-dimethyl-7-(pentan-3-yl)pyrazolo[1,5-a]pyrimidin-3-yl)thiazol-2-yl)morpholine]
tolerability ([1]; Study 1, single oral doses up to 800 mg): well-tolerated | tolerability ([1]; Study 2, multiple doses up to 200 mg): generally well tolerated | tolerability [2]: generally well-tolerated | effect on morning rise in A4 (androstenedione) (CRF1 receptor): attenuates morning rise in A4 | subjects with 17-OHP within the guideline range (1200 ng/dL) after treatment (CRF1 receptor): 50% | subjects with ACTH in the normal range after treatment (CRF1 receptor): 40% | subjects with Androstenedione within normal reference range after treatment (CRF1 receptor): 50% | subjects with more than 25% reduction in 17-OHP (CRF1 receptor): 50% | subjects with more than 25% reduction in ACTH (CRF1 receptor): 70% | subjects with more than 25% reduction in Androstenedione (CRF1 receptor): 60% | subjects with reduction in 17-OHP (CRF1 receptor): 80% | subjects with reduction in ACTH (CRF1 receptor): 80% | subjects with reduction in Androstenedione (CRF1 receptor; at various doses): 100%
